# In PMC8767972 (Slas Discovery, 2022):
# pIC50: −log10 of the molar value.
# Key:
# HKU1 main protease = HKU1 main protease (Human coronavirus HKU1, UniProt P0C6X2); type: biochemical, HKU1 CoV; settings: read-out: HKU1 IC50
# NL63 main protease = NL63 main protease (Human coronavirus NL63, UniProt P0C6X5); type: biochemical, NL63 CoV; settings: read-out: NL63 IC50
# NL63 main protease, sequence (P0C6X5 2940-3242 limits assumed): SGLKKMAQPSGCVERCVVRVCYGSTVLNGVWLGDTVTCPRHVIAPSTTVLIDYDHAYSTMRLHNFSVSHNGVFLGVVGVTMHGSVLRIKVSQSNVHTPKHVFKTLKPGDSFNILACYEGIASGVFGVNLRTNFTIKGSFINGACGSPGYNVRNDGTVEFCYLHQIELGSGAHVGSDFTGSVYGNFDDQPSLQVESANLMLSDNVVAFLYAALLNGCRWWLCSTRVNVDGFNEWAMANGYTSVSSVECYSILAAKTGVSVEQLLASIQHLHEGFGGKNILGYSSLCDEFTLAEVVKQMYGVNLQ
# HKU1 main protease, sequence (P0C6X2 3335-3637 limits assumed): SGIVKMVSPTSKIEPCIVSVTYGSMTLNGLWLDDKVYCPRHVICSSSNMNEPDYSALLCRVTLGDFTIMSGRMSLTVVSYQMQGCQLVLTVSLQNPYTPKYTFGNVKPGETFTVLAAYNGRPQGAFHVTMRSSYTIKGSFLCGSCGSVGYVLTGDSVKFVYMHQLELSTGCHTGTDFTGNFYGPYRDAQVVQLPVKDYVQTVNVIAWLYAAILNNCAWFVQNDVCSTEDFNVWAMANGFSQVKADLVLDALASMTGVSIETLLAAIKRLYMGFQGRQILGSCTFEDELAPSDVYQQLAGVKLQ
compound,measurement,setting,value
CC(C)C[C@H](NC(=O)OCc1ccccc1)C(=O)N[C@@H](CC1CCNC1=O)C(O)S(=O)(=O)O (some centres unmarked) [GC376],pIC50,HKU1 main protease,7.92
same,pIC50,NL63 main protease,7.28
